Assay results taken from PMC11383786, “Parallel evolution of methyltransferases leads to vobasine biosynthesis in Tabernaemontana elegans and Catharanthus roseus” (Frontiers in Plant Science, 2024).

System: T1, TePeNMT (TeMT1)
T1 construct: N-terminal His-tag, codon optimized synthetic gene in pET30a(+) NotI/XhoI, E. coli BL21(DE3), Ni-NTA purified; no chloroplast transit peptide predicted
Test: Michaelis-Menten kinetics, LC-MS/MS detection of product vobasine
Assay type: biochemical, Tabernaemontana elegans
Conditions: 50 μM S-adenosylmethionine (saturating), 20 mM Tris pH 7.5, 30 °C, 5 min
Text: Michaelis-Menten kinetics, LC-MS/MS detection of product vobasine on TePeNMT (TeMT1)

Q: How did the Km turn out when C/C=C1/CN[C@H]2Cc3c([nH]c4ccccc34)C(=O)C[C@@H]1[C@@H]2C(=O)OC [perivine] was run?
A: The Km was 1.91 µM.
